The results in this text go back to patent publication US12281102B2, “Inhibitors of APOL1 and methods of using same” (Vertex Pharmaceuticals Incorporated, priority 2020, dated 2025).

One assay concerns the target T1, G1 APOL1 (Homo sapiens, UniProt O14791, I384M/S342G).
T1 construct: expressed in transfected cells
T1 sequence (O14791 28-398 S342G/I384M): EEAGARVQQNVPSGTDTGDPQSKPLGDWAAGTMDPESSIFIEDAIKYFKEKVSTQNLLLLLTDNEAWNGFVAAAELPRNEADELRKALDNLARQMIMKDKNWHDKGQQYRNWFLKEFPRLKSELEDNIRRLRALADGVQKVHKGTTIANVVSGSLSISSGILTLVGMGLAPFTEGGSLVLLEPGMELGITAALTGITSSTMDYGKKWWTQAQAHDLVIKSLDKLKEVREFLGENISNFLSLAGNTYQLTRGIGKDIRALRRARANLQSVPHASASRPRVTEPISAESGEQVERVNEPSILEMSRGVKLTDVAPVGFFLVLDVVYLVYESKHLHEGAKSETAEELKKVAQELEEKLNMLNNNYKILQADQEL
Put plainly: Acute APOL1 Thallium Assay with inducible stable clones of HEK 293 cells. The format is cell-based. The note with it: HEK 293 T-Rex inducible stable clone expressing G1 APOL1; read-out: Thallium Assay (IC50). The source says: Acute APOL1 Thallium Assay with Inducible Stable Clones of HEK 293 Cells
Apolipoprotein L1 (APOL1) proteins form potassium-permeable cation pores in the plasma membrane. APOL1 risk variants (G1 and G2) induce greater potassium flux than G0 in HEK293 cells. This assay exploits the permeability of thallium (T1+) through ligand-gated potassium channels. The dye produces a bright fluorescent signal upon binding to T1+ conducted through potassium channels. The intensity of the T1+ signal is proportional to the number of potassium channels in the open state. Therefore, it provides a functional indication of the potassium channel activities. During the initial dye-loading step, the T1+ indicator dye as an acetoxymethyl (AM) ester enters the cells through passive diffusion. Cytoplasm esterases cleave the AM ester and relieve its active thallium-sensitive form. The cells are then stimulated with T1+. The increase of fluorescence in the assay represents the influx of T1+ into the cell specifically through the potassium channel (i.e. through APOL1 pores), providing a functional measurement of potassium channel/pore activity. The Thallium assay is conducted with cells expressing G1 APOL1.
APOL1 Cell Line (HEK T-Rex Stable Inducible Cell Line)
• HEK T-Rex System • Tetracycline (Tet) inducible mammalian expression system. • Stably express the Tet repressor to regulate transcription. • Expression under the full-length CMV promoter. • APOL1 stable inducible cell line Clone used: G1 DC3.25 Tissue Culture Media Cell Culture Medium • DMEM+10% FBS+P/S+5 μg/mL blasticidin+1 μg/mL puromycin. • 500 mL DMEM+55 mL FBS+5 mL P/S+280 μL blasticidin S HCl (10 mg/mL)+56 μL puromycin (10 mg/mL). Cell Assay Medium • DMEM with 2% FBS+penicillin streptomycin. Reagents:
Instruments and Equipment • Nuaire cell culture hood, Cat. No. 540-600 • 37° C./5% CO2 incubator link to robotic arm, Liconic: STX110 • Molecular Devices FLIPR^Tetra High throughput cellular screening system, Cat. No. FT0324, Molecular Devices • ThermoFisher MultiDrop 384, Cat. No. 5840300 • Biotek Microfill, Cat. No. ASF1000A-4145 • BioRad TC10 cell counter, Cat. No. 145-0010 Assay Procedures Cells Scaled Up from Frozen Vials • APOL1 G1 3.25 (HEK293 T-Rex) frozen vials: 5 million cells per vial • Step 1, Day 1: Defrost frozen vial into T-225. • Step 2, Day 5: (when 85% confluent): Split one T-225 at 3×10^6 cells per flask. • Step 3, Day 8: Splits cells to set up for the assay plates as described below. Cell Culture
T-Rex APOL1 HEK cells are split twice per week to keep the confluence state below 85% of the culture flask surface area. Cells can be kept until passage 25.
• DMEM high glucose+10% FBS, +P/S, +5 μg/mL blasticidin, +1 μg/mL puromycin. • 500 mL DMEM, +55 mL FBS, +5 mL P/S, +280 μL blasticidin 10 mg/mL, +56 μL Puromycin 10 mg/mL. Assay Media • Opti-MEM reduced serum medium from Invitrogen. Day 1 Preparation of Cell Assay Plates • Culture medium is removed from the x cm^2 T-flask by aspiration. • The cell monolayer is rinsed with PBS 1× at room temperature. PBS is removed by aspiration. • Cells are trypsinized using Trypsin. • The flasks are incubated at room temperature for 2-3 minutes. • Complete DMEM medium is then added. Cell suspension is then transferred to a 50 mL Falcon polypropylene tube. • Cells are then counted using a BioRad TC10 cell counter and the required amount of cells are centrifuged at 1200 RPM for 5 minutes. Required amount is 1.3×10^6 cells/mL APOL1 T-Rex HEK cells. • The pellet is suspended in the assay medium. • Using the MultiDrop, add 20 μL to each well (corresponds to 26000 cells total per well) of a 384-well black, transparent, flat bottom Poly-D coated plate. • Tetracycline as prepared in the following section is added to the cells before plating to induce APOL1 expression. • Plates are left at room temperature for 20 to 30 minutes before incubation at 37° C. and 5% CO2. […]
`NC1CC(c2c(-c3ccc(F)cc3)[nH]c3c(F)cc(C(F)(F)F)cc23)C1` (mixture of isomers) [Compound 1, 3-[7-fluoro-2-(4-fluorophenyl)-5-(trifluoromethyl)-1H-indol-3-yl]cyclobutanamine]: the IC50 was above 1000 nM.
The same measure, in the same setting: as for `O=C(CCO)NC1CC(c2c(-c3ccc(F)cc3)[nH]c3c(F)cc(C(F)(F)F)cc23)C1` (mixture of isomers) [Compound 2, N-[3-[7-fluoro-2-(4-fluorophenyl)-5-(trifluoromethyl)-1H-indol-3-yl]cyclobutyl]-3-hydroxy-propanamide], the figure is 250 to 1000 nM.
Take `CC(C)(O)C(=O)NC1CC(c2c(-c3ccc(F)cc3)[nH]c3c(F)cc(C(F)(F)F)cc23)C1` (mixture of isomers) [Compound 3, N-[3-[7-fluoro-2-(4-fluorophenyl)-5-(trifluoromethyl)-1H-indol-3-yl]cyclobutyl]-2-hydroxy-2-methyl-propanamide]: the IC50 fell in the range of 250 to 1000 nM.
The same measure, in the same setting: as for `Cc1cccc(-c2[nH]c3c(F)cc(F)cc3c2C2CC(N)C2)c1` (mixture of isomers) [Compound 5, 3-[5,7-difluoro-2-(m-tolyl)-1H-indol-3-yl]cyclobutanamine], the figure is 250 to 1000 nM; as for `Cc1cc(-c2[nH]c3c(F)cc(F)cc3c2C2CC(N)C2)ccc1F` (mixture of isomers) [Compound 11, 3-[5,7-difluoro-2-(4-fluoro-3-methyl-phenyl)-1H-indol-3-yl]cyclobutanamine], 250 to 1000 nM; as for `CC1(C(=O)NC2CC(Cc3c(-c4ccc(F)cc4)[nH]c4c(F)cc(F)cc34)C2)CCNC1=O` (mixture of isomers) [Compound 169], above 1000 nM.
Same read-out and setting: as for `CC(CO)NCC1CC(c2c(-c3ccc(F)cc3)[nH]c3c(F)cc(F)cc23)C1` (mixture of isomers) [Compound 378], the figure is 250 to 1000 nM; as for `CC(CC(=O)N[C@H]1C[C@@H](c2c(-c3ccc(F)cc3)[nH]c3c(F)cc(F)cc32)C1)N1CCOCC1` (mixture of isomers) [Compound 36], above 1000 nM; as for `CC(C(=O)N[C@H]1C[C@@H](c2c(-c3ccc(F)cc3)[nH]c3c(F)cc(F)cc32)C1)n1ccnc1` (mixture of isomers) [Compound 40], above 1000 nM.
Consider `CC(NS(C)(=O)=O)C(=O)N[C@H]1C[C@@H](c2c(-c3ccc(F)cc3)[nH]c3c(F)cc(F)cc32)C1` (mixture of isomers) [Compound 55], for which the IC50 was above 1000 nM.
Regarding `CC1(C(=O)N[C@H]2C[C@@H](c3c(-c4ccc(F)cc4)[nH]c4c(F)cc(F)cc43)C2)CCC(=O)NC1` (mixture of isomers) [Compound 66], the IC50 is above 1000 nM.
Still for that read-out and setting: under `CC(C(=O)N[C@H]1C[C@@H](c2c(-c3ccc(F)cc3)[nH]c3c(F)cc(F)cc32)C1)N(C)C` (mixture of isomers) [Compound 77] stands above 1000 nM; under `CC1(C(=O)N[C@H]2C[C@H](c3c(-c4ccc(F)cc4)[nH]c4c(F)cc(F)cc43)C2)CCC(=O)NC1` (mixture of isomers) [Compound 97], above 1000 nM; under `CC(CC(=O)N[C@H]1C[C@H](c2c(-c3ccc(F)cc3)[nH]c3c(F)cc(F)cc32)C1)N1CCOCC1` (mixture of isomers) [Compound 102], above 1000 nM.
Turning to `CC(C(=O)N[C@H]1C[C@H](c2c(-c3ccc(F)cc3)[nH]c3c(F)cc(F)cc32)C1)n1ccnc1` (mixture of isomers) [Compound 105], the IC50 was above 1000 nM.
In the case of `CC(C(=O)N[C@H]1C[C@H](c2c(-c3ccc(F)cc3)[nH]c3c(F)cc(F)cc32)C1)N(C)C` (mixture of isomers) [Compound 111], the IC50 is above 1000 nM.
Turning to `CC(NS(C)(=O)=O)C(=O)NC[C@H]1C[C@@H](c2c(-c3ccc(F)cc3)[nH]c3c(F)cc(F)cc32)C1` (mixture of isomers) [Compound 242], the IC50 is above 1000 nM.
For the compound `CC(C(=O)NC[C@H]1C[C@@H](c2c(-c3ccc(F)cc3)[nH]c3c(F)cc(F)cc32)C1)N(C)C` (mixture of isomers) [Compound 281], the IC50 was above 1000 nM.
For the compound `CC1(C(=O)NC[C@H]2C[C@@H](c3c(-c4ccc(F)cc4)[nH]c4c(F)cc(F)cc43)C2)CCC(=O)NC1` (mixture of isomers) [Compound 306], the IC50 is above 1000 nM.
On the same count and under the same terms, as for `CC(CC(=O)NC[C@H]1C[C@@H](c2c(-c3ccc(F)cc3)[nH]c3c(F)cc(F)cc32)C1)N1CCOCC1` (mixture of isomers) [Compound 318], the figure is above 1000 nM.
As for `COCC(C)NS(=O)(=O)NC[C@H]1C[C@H](c2c(-c3ccc(F)cc3)[nH]c3c(F)cc(F)cc32)C1` (mixture of isomers) [Compound 342], the IC50 was above 1000 nM.
The same measure, in the same setting: as for `CC(CCO)NS(=O)(=O)NC[C@H]1C[C@H](c2c(-c3ccc(F)cc3)[nH]c3c(F)cc(F)cc32)C1` (mixture of isomers) [Compound 362], the figure is 250 to 1000 nM; as for `CC1(CO)CCN1S(=O)(=O)NC[C@H]1C[C@H](c2c(-c3ccc(F)cc3)[nH]c3c(F)cc(F)cc32)C1` (mixture of isomers) [Compound 364], above 1000 nM; as for `CC(NC(=O)O[C@H]1C[C@H](c2c(-c3ccc(F)cc3)[nH]c3c(F)cc(F)cc32)C1)C(N)=O` (mixture of isomers) [Compound 456, [3-[5,7-difluoro-2-(4-fluorophenyl)-1H-indol-3-yl]cyclobutyl]N-(2-amino-1-methyl-2-oxo-ethyl)carbamate], above 1000 nM.
Still for that read-out and setting: under `NC1CC(c2c(-c3ccc(C4CC4)cc3)[nH]c3ccc(F)cc23)C1` (stereo not drawn) [Compound 7, 3-[2-(4-cyclopropylphenyl)-5-fluoro-1H-indol-3-yl]cyclobutanamine] stands 250 to 1000 nM; under `NC1CC(c2c(-c3ccc(OC(F)(F)F)cc3)[nH]c3c(F)cc(F)cc23)C1` (stereo not drawn) [Compound 8, 3-[5,7-difluoro-2-[4-(trifluoromethoxy)phenyl]-1H-indol-3-yl]cyclobutanamine], 250 to 1000 nM; under `NC1CC(c2c(-c3ccc(OC(F)F)cc3)[nH]c3c(F)cc(F)cc23)C1` (stereo not drawn) [Compound 9], below 250 nM.
Take `O=C(NC1CC(c2c(-c3ccc(F)cc3)[nH]c3c(F)cc(F)cc23)C1)OCc1ccccc1` (stereo not drawn) [Compound 13, benzyl N-[3-[5,7-difluoro-2-(4-fluorophenyl)-1H-indol-3-yl]cyclobutyl]carbamate]: the IC50 is above 1000 nM.
The same measure, in the same setting: under `CC(=O)Nc1ccn(C2CC(c3c(-c4ccc(F)cc4)[nH]c4c(F)cc(F)cc34)C2)n1` (stereo not drawn) [Compound 19, N-[1-[3-[5,7-difluoro-2-(4-fluorophenyl)-1H-indol-3-yl]cyclobutyl]pyrazol-3-yl]acetamide] stands above 1000 nM.

The same assay, now with this note: Thallium Assay (IC50), HEK 293 T-Rex inducible stable clone expressing G1 APOL1.
`NC1CC(c2c(-c3ccc(F)cc3)[nH]c3c(F)cc(F)cc23)C1` (stereo not drawn) [Compound 14, 3-[5,7-difluoro-2-(4-fluorophenyl)-1H-indol-3-yl]cyclobutanamine] yielded an IC50 below 250 nM.
